# Assay results: US20180311340A1, “NEW ADJUVANT AND VACCINE COMPOSITION CONTAINING THE SAME” (priority 2015, published 2018)
# “Also recorded” adds a separate entry of the source.
# What was measured:
# [1] = system: Influenza A/Singapore/6/86(H1N1); test: Immunogenicity study of influenza virosome with flavonoids; humoral response by ELISA; assay type: in vivo; details: Balb/c mice, subcutaneous, 1 μg Influenza A virosome with 1 or 10 μg adjuvant, day 0 and 21, blood after 35 days; compared to other analysed flavonoids and virosomes without adjuvant
# PCSK9 antigenic peptide = test: Immunogenicity study of PCSK9 vaccine; humoral response by ELISA; assay type: in vivo, mice; details: beta-sitosterol used along with alum; statement on Table 6
# Procedure: The results are measured in ELISA units.
# PCSK9 vaccine was prepared as described in WIPO publication WO 2011/027257. Here, ‘VR_9.5’ as decribed in WO 2011/027257 has been used as PCSK9 peptide for the current experiment. Other disclosed PCSK9 peptide can also be used as PCSK9 construct. The prepared PCSK9 construct was conjugated with diphtheria toxoid as an immunogenic carrier. The said preparation was used as an antigen preparation for further study. The conjugated PCSK9 antigen was formulated with alum and beta-sitosterol. […] Blood samples were collected at day 63 for the analysis of humoral response by ELISA. Humoral response analysed by ELISA is shown in below table. […] Table 6 provided here below for the results obtained by ELISA.
compound,measurement,setting,value
CC[C@H](CC[C@@H](C)[C@H]1CC[C@H]2[C@@H]3CC=C4C[C@@H](O)CC[C@]4(C)[C@H]3CC[C@]12C)C(C)C [beta-sitosterol],"immune response (serum titers of total IgG, IgG2a and IgG1 antibody, FIG. 1-3)",[1],higher immune response
same,immune response against PCSK9 antigenic peptide,PCSK9 antigenic peptide,higher immune response; also recorded: synergistic effect
